Data from US20040097522A1, “Triazolopyrimidines” (priority 2000, published 2004).

Test: logP determination
Type: physicochemical
Settings: for logP: Table 1 logP

| Compound | logP | log P (S) (log P (S), stated in the preparation example) |
| --- | --- | --- |
| CN(C)C(=O)CN(CCCF)c1c(-c2cccc(C(F)(F)F)c2Cl)c(Cl)nc2ncnn12 [Example 7] | 2.71 | – |
| COC(=O)CN(CCCF)c1c(-c2cccc3c2OC(F)(F)O3)c(Cl)nc2ncnn12 [Example 1] | – | 2.93 |
| CN(C)C(=O)CN(CCCF)c1c(-c2cccc3c2OC(F)(F)O3)c(Cl)nc2ncnn12 [Example 8] | 2.52 | – |
| COC(=O)CN(CCCF)c1c(-c2cc(C(F)(F)F)ccc2Cl)c(Cl)nc2ncnn12 [Example 10] | 3.23 | – |
| CC(=O)CN(CCCF)c1c(-c2cccc(C(F)(F)F)c2Cl)c(Cl)nc2ncnn12 [Example 38] | 3.01 | – |
| CC(=O)CN(CCCF)c1c(-c2cccc3c2OC(F)(F)O3)c(Cl)nc2ncnn12 [Example 39] | 2.80 | – |
| CN(C)C(=O)CN(CCCF)c1c(-c2c(Cl)c(F)cc(C(F)(F)F)c2Cl)c(Cl)nc2ncnn12 [Example 4] | 3.01 | – |
| COC(=O)CN(CCCF)c1c(-c2ccc(C(F)(F)F)c(F)c2F)c(Cl)nc2ncnn12 [Example 16] | 3.29 | – |
| COC(CN(CCCF)c1c(-c2cccc(C(F)(F)F)c2Cl)c(Cl)nc2ncnn12)OC [Example 22] | 3.42 | – |
| C=C(Br)CN(CCCF)c1c(-c2cc(C(F)(F)F)ccc2Cl)c(Cl)nc2ncnn12 [Example 41] | 3.92 | – |
| C=C(Cl)CN(CCCF)c1c(-c2cc(C(F)(F)F)ccc2Cl)c(Cl)nc2ncnn12 [Example 49] | 3.84 | – |
| C=C(Br)CN(CCCF)c1c(-c2cc(C(F)(F)F)ccc2C(F)(F)F)c(F)nc2ncnn12 [Example 42] | 3.84 | – |
| CN(C)C(=O)CN(CCCF)c1c(-c2ccc(C(F)(F)F)cc2F)c(Cl)nc2ncnn12 [Example 5] | 2.71 | – |
| CCOC(CN(CCCF)c1c(-c2ccc(C(F)(F)F)cc2F)c(Cl)nc2ncnn12)OCC [Example 28] | 4.04 | – |
| CC(=O)CN(CCCF)c1c(-c2cc(SC(F)(F)F)ccc2Cl)c(Cl)nc2ncnn12 [Example 37] | 3.42 | – |
| C=C(Br)CN(CCCF)c1c(-c2cccc3c2OC(F)(F)O3)c(Cl)nc2ncnn12 [Example 47] | 3.69 | – |
| CCOC(CN(CCCF)c1c(-c2cccc(C(F)(F)F)c2Cl)c(Cl)nc2ncnn12)OCC [Example 30] | 4.00 | – |

| Compound | logP | log P (S) (log P (S), stated in the preparation example) |
| --- | --- | --- |
| C=C(Cl)CN(CCCF)c1c(-c2cccc(C(F)(F)F)c2Cl)c(F)nc2ncnn12 [Example 54] | 3.66 | – |
| COC(CN(CCCF)c1c(-c2cc(C(F)(F)F)ccc2Cl)c(Cl)nc2ncnn12)OC [Example 17] | 3.54 | – |
| C=C(Br)CN(CCCF)c1c(-c2ccc(C(F)(F)F)cc2F)c(Cl)nc2ncnn12 [Example 44] | 3.85 | – |
| C=C(Br)CN(CCCF)c1c(-c2cc(SC(F)(F)F)ccc2Cl)c(Cl)nc2ncnn12 [Example 45] | 4.36 | – |
| COC(CN(CCCF)c1c(-c2c(Cl)c(F)cc(C(F)(F)F)c2Cl)c(Cl)nc2ncnn12)OC [Example 19] | 3.82 | – |
| COC(=O)CN(CCCF)c1c(-c2ccc(C(F)(F)F)cc2F)c(Cl)nc2ncnn12 [Example 13] | 3.17 | – |
| COC(CN(CCCF)c1c(-c2cc(SC(F)(F)F)ccc2Cl)c(Cl)nc2ncnn12)OC [Example 21] | 3.90 | – |
| CCOC(CN(CCCF)c1c(-c2cc(SC(F)(F)F)ccc2Cl)c(Cl)nc2ncnn12)OCC [Example 29] | 4.47 | – |
| C=C(Br)CN(CCCF)c1c(-c2cccc(C(F)(F)F)c2Cl)c(F)nc2ncnn12 [Example 46] | 3.73 | – |
| C=C(Br)CN(CCCF)c1c(-c2ccc(C(F)(F)F)c(F)c2F)c(Cl)nc2ncnn12 [Example 48] | 3.94 | – |
| CN(C)C(=O)CN(CCCF)c1c(-c2cc(C(F)(F)F)ccc2Cl)c(Cl)nc2ncnn12 [Example 2] | 2.77 | – |
| COC(CN(CCCF)c1c(-c2cccc3c2OC(F)(F)O3)c(Cl)nc2ncnn12)OC [Example 23] | 3.24 | – |
| COC(=O)CN(CCCF)c1c(-c2c(Cl)c(F)cc(C(F)(F)F)c2Cl)c(Cl)nc2ncnn12 [Example 12] | 3.58 | – |
| COC(CN(CCCF)c1c(-c2ccc(C(F)(F)F)cc2F)c(Cl)nc2ncnn12)OC [Example 20] | 3.41 | – |
| C=C(Cl)CN(CCCF)c1c(-c2ccc(C(F)(F)F)cc2F)c(Cl)nc2ncnn12 [Example 52] | 3.77 | – |
| COC(=O)CN(CCCF)c1c(-c2cccc(C(F)(F)F)c2Cl)c(Cl)nc2ncnn12 [Example 15] | 3.17 | – |

Further lines, with some results ahead:

| logP | Compound | log P (S) (log P (S), stated in the preparation example) |
| --- | --- | --- |
| 3.14 | CC(=O)CN(CCCF)c1c(-c2ccc(C(F)(F)F)c(F)c2F)c(Cl)nc2ncnn12 [Example 40] | – |
| 3.57 | COC(=O)CN(CCCF)c1c(-c2cc(SC(F)(F)F)ccc2Cl)c(Cl)nc2ncnn12 [Example 14] | – |
| 4.45 | CCOC(CN(CCCF)c1c(-c2c(Cl)c(F)cc(C(F)(F)F)c2Cl)c(Cl)nc2ncnn12)OCC [Example 27] | – |
| 4.27 | C=C(Br)CN(CCCF)c1c(-c2c(Cl)c(F)cc(C(F)(F)F)c2Cl)c(Cl)nc2ncnn12 [Example 43] | – |
| 2.89 | CN(C)C(=O)CN(CCCF)c1c(-c2cc(C(F)(F)F)ccc2C(F)(F)F)c(Cl)nc2ncnn12 [Example 3] | – |
| 3.14 | CN(C)C(=O)CN(CCCF)c1c(-c2cc(SC(F)(F)F)ccc2Cl)c(Cl)nc2ncnn12 [Example 6] | – |
| 4.19 | C=C(Cl)CN(CCCF)c1c(-c2c(Cl)c(F)cc(C(F)(F)F)c2Cl)c(Cl)nc2ncnn12 [Example 51] | – |
| 3.01 | CC(=O)CN(CCCF)c1c(-c2ccc(C(F)(F)F)cc2F)c(Cl)nc2ncnn12 [Example 36] | – |
| 3.81 | CCOC(CN(CCCF)c1c(-c2cccc3c2OC(F)(F)O3)c(Cl)nc2ncnn12)OCC [Example 31] | – |
| 3.77 | C=C(Cl)CN(CCCF)c1c(-c2cc(C(F)(F)F)ccc2C(F)(F)F)c(F)nc2ncnn12 [Example 50] | – |
| 2.92 | COC(=O)CN(CCCF)c1c(-c2c(F)cc(F)cc2C(F)(F)F)c(Cl)nc2ncnn12 [Example 74] | – |
| 3.22 | COC(CN(CCCF)c1c(-c2c(F)cc(F)cc2C(F)(F)F)c(Cl)nc2ncnn12)OC [Example 73] | – |
| 3.61 | C=C(Cl)CN(CCCF)c1c(-c2cccc3c2OC(F)(F)O3)c(Cl)nc2ncnn12 [Example 55] | – |
| 3.55 | COC(CN(CCCF)c1c(-c2ccc(C(F)(F)F)c(F)c2F)c(Cl)nc2ncnn12)OC [Example 24] | – |
| 2.86 | CN(C)C(=O)CN(CCCF)c1c(-c2ccc(C(F)(F)F)c(F)c2F)c(Cl)nc2ncnn12 [Example 9] | – |
| 3.86 | C=C(Cl)CN(CCCF)c1c(-c2ccc(C(F)(F)F)c(F)c2F)c(Cl)nc2ncnn12 [Example 56] | – |
| 3.07 | CC(=O)CN(CCCF)c1c(-c2cc(C(F)(F)F)ccc2Cl)c(Cl)nc2ncnn12 [Example 33] | – |
| 4.10 | CCOC(CN(CCCF)c1c(-c2cc(C(F)(F)F)ccc2Cl)c(Cl)nc2ncnn12)OCC [Example 25] | – |
| 4.27 | C=C(Cl)CN(CCCF)c1c(-c2cc(SC(F)(F)F)ccc2Cl)c(Cl)nc2ncnn12 [Example 53] | – |
| 4.16 | CCOC(CN(CCCF)c1c(-c2ccc(C(F)(F)F)c(F)c2F)c(Cl)nc2ncnn12)OCC [Example 32] | – |
